# Experimental data from patent US20110143406A1, “Novel (S,S) -Butanediol Dehydrogenase, Gene for the Same, and Use of the Same” (Kaneka Corporation, priority 2006, published 2011).
# Read-outs that look alike come from different tables or passages of the source.
# Columns and labels:
# Format in all cases: biochemical, Ochrobactrum sp. KNKc71-3
# [1] = tested on: ROB ((S,S)-butanediol dehydrogenase)
# [2] = tested on: ROB ((S,S)-butanediol dehydrogenase); test: Substrate specificity of ROB: oxidation activity; details: each compound 10 mM, NAD+ 2 mM, phosphate buffer pH 8.0, 30° C., 1 minute, activity against 2,3-butanediol taken as 100
# Description: Using the purified ROB obtained in Example 1, oxidation activity measurements were carried out by adding NAD^+ (2 mM), each compound (10 mM) shown in Table 2 and the enzyme solution to 100 mM phosphate buffer (pH 8.0), the reaction was allowed to proceed at 30° C. for 1 minute, and the increase in absorbance at the wavelength 340 nm was measured. The relative activity data are summarized in Table 2, with the activity against 2,3-butanediol being taken as 100.
# [3] = tested on: ROB ((S,S)-butanediol dehydrogenase); details: reduction; each compound 1 mM, NADH 0.167 mM, phosphate buffer pH 5.5, 30° C., 3 minutes; activity against 2,3-butanedione taken as 100
# [4] = tested on: ROB ((S,S)-butanediol dehydrogenase); remark: listed apart in the source
# Description: Using the purified ROB obtained in Example 1, oxidation activity measurement were carried out using, as substrates, optical isomers of each of 2-butanol, 2-pentanol, 1,2-propanediol, 2,3-butanediol and 3-chloro-1,2-propanediol. NAD^+ (2 mM), each compound (10 mM) and the enzyme solution were added to 100 mM phosphate buffer (pH 8.0), the reaction was allowed to proceed at 30° C. for 1 minute, and the increase in absorbance at the wavelength 340 nm.
# [5] = Optimum temperature for action of ROB; details: (2S,3S)-2,3-butanediol oxidation, measured at 10 to 70° C., pH 8.0
# Description: Using the purified ROB obtained in Example 1, (2S,3S)-2,3-butanediol oxidation activity measurements were carried out at 10 to 70° C. In the activity measurements, (2S,3S)-2,3-butanediol (0.1 M), NAD^+ 2 mM and the enzyme solution were added to 100 mM phosphate buffer (pH 8.0), the reaction was allowed to proceed at 10 to 70° C. for 1 minute, and the increase in absorbance at the wavelength 340 nm were measured.
# [6] = Specific oxidation activity of purified enzyme; details: (2S,3S)-2,3-butanediol 100 mM, NAD+ 2 mM, pH 8.0, 30° C.
# Description: In the examples described below, the oxidation activity of (S,S)-butanediol dehydrogenase was determined by adding (2S,3S)-2,3-butanediol (100 mM), NAD^+ (2 mM) and an enzyme solution to 100 mM phosphate buffer (pH 8.0) and measuring the increase in absorbance at the wavelength 340 nm at 30° C. The enzyme activity reducing 1 μmol of NAD^+ to NADH per minute was defined as 1 unit.
# Ammonium sulfate was added to this active fraction to a concentration of 1 M, and the mixture was submitted to a Phenyl-TOYOPEARL 650M (product of Tosoh) column (50 ml) equilibrated in advance with 10 mM phosphate buffer (pH 7.0) containing 1 M ammonium sulfate for adsorption of the enzyme. After washing the column with the same buffer, the active fraction was eluted on a linear gradient from 1 M to 0 M ammonium sulfate. Ammonium sulfate was added to this active fraction to a concentration of 1.2 M, and the mixture was submitted to a Butyl-TOYOPEARL 650S (product of Tosoh) column (25 ml) equilibrated in advance with 10 mM phosphate buffer (pH 7.0) containing 1.2 M ammonium sulfate for adsorption of the enzyme. After washing the column with the same buffer, the active fraction was eluted on a linear gradient from 1.2 M to 0 M ammonium sulfate. This active fraction was analyzed by sodium dodecyl sulfate-polyacrylamide electrophoresis and found to give a single band. […]
# [7] = reagent 1.0 mM, (2S,3S)-2,3-butanediol 0.1 M, NAD+ 2 mM, pH 8.0, 30° C., reagent-free activity taken as 100
# [8] = oxidation, each compound 10 mM, NAD+ 2 mM, pH 8.0, 30° C., 1 minute, activity against (2S,3S)-2,3-butanediol taken as 100
molecule,measurement,setting,value
O=C(O)c1cc[c]([Hg][Cl])cc1 [p-chloromercuribenzoate],Relative activity (%),[1]; [7],84%
CC(C)O [2-propanol],Relative activity (%),[2],5.1%
CCCC(C)=O [2-pentanone],Relative activity (%),[3],2.8%
CC[C@@H](C)O [(R)-2-butanol],Relative activity (%),[4]; pH 8,3.2%
CCOC(=O)C(Cl)C(C)=O (stereo not drawn) [Ethyl 2-chloroacetoacetate],Relative activity (%),[3],58.5%
CC(O)Cc1ccccc1 (stereo not drawn) [1-phenyl-2-propanol],Relative activity (%),[2],43.0%
[Cl][Mn][Cl] [MnCl2],Relative activity (%),[1]; [7],87%
O=S(=O)(F)Cc1ccccc1 [Phenylmethylsulfonyl fluoride],Relative activity (%),[1]; [7],75%
O=C(CO)CCl [1-chloro-3-hydroxyacetone],Relative activity (%),[3],94.3%
CO [Methanol],Relative activity (%),[2],0%
"OC[C@H](O)CCl [(S)-3-chloro-1,2-propanediol]",Relative activity (%),[4]; [8],0.1%
[Cl][Hg][Cl] [HgCl2],Relative activity (%),"[1]; reagent 0.1 mM, (2S,3S)-2,3-butanediol 0.1 M, NAD+ 2 mM, pH 8.0, 30° C., reagent-free activity taken as 100",41%
same,Relative activity (%),[1]; [7],0%
"CC(=O)C(C)=O [2,3-butanedione]",Relative activity (%),[3],100%
O=S(=O)([O-])[O-].[Zn+2] [ZnSO4],Relative activity (%),[1]; [7],88%
"OC[C@@H](O)CCl [(R)-3-chloro-1,2-propanedio]",Relative activity (%),[4]; [8],3.5%
CCCO [1-propanol],Relative activity (%),[2],0%
"CCC(O)CO (stereo not drawn) [1,2-butanediol]",Relative activity (%),[2],8.2%
CCOC(=O)C(C)O (stereo not drawn) [Ethyl lactate],Relative activity (%),[2],1.6%
O=S(=O)([O-])[O-].[Cu+2] [CuSO4],Relative activity (%),[1]; [7],81%
COC(=O)C(C)O (stereo not drawn) [Methyl lactate],Relative activity (%),[2],0.9%
"CC(O)CO (stereo not drawn) [1,2-propanediol]",Relative activity (%),[2],57.9%
CCO [Ethanol],Relative activity (%),[2],0%
"C[C@@H](O)[C@@H](C)O [(2R,3R)-2,3-butanediol]",Relative activity (%),[4]; [8],0.6%
"ROB: purified (S,S)-butanediol dehydrogenase from Ochrobactrum sp. KNKc71-3, amino acid sequence SEQ ID NO:1",optimum temperature for the activity,[5],70 °C
same,specific activity,[6],about 119 U/mg-protein
CCCCCCC(C)=O [2-octanone],Relative activity (%),[3],2.8%
CC[C@H](C)O [(S)-2-butanol],Relative activity (%),[4]; pH 8,44.2%
"C[C@H](O)CO [(S)-1,2-propanediol]",Relative activity (%),[4]; [8],16.7%
CCC(O)CC [3-pentanol],Relative activity (%),[2],3.3%
"CC(O)CCO (stereo not drawn) [1,3-butanediol]",Relative activity (%),[2],0.5%
COC(=O)CC(C)=O [Methyl acetoacetate],Relative activity (%),[3],65.1%
CCCC(C)O (stereo not drawn) [2-pentanol],Relative activity (%),[2],58.8%
CCC(C)O (stereo not drawn) [2-butanol],Relative activity (%),[2],40.4%
[Ba+2].[Cl-].[Cl-] [BaCl2],Relative activity (%),[1]; [7],56%
O=S(=O)([O-])[O-].[Mg+2] [MgSO4],Relative activity (%),[1]; [7],91%
CCCCCC(C)=O [2-heptanone],Relative activity (%),[3],3.8%
CCN1C(=O)C=CC1=O [N-ethylmaleimide],Relative activity (%),[1]; pH 8,93%
CCC[C@@H](C)O [(R)-2-pentanol],Relative activity (%),[4]; [8],2.9%
[Ca+2].[Cl-].[Cl-] [CaCl2],Relative activity (%),[1]; [7],86%
CC(=O)[O-].[Na+] [Sodium acetate],Relative activity (%),[1]; pH 8,96%
CC(=O)C(C)O (stereo not drawn) [Acetoin],Relative activity (%),[2],0.4%
"OCC(O)CCl (stereo not drawn) [3-chloro-1,2-propanediol]",Relative activity (%),[2],3.9%
CCC(C)=O [2-butanone],Relative activity (%),[3],0.9%
"CCCC(O)CO (stereo not drawn) [1,2-pentanediol]",Relative activity (%),[2],4.4%
"C[C@@H](O)CO [(R)-1,2-propanediol]",Relative activity (%),[4]; [8],8.0%
"CC(O)C(C)O (stereo not drawn) [meso-2,3-butanediol]",Relative activity (%),[4]; [8],38.9%
COC(=O)C(C)=O [Methyl pyruvate],Relative activity (%),[3],136%
"CC(O)C(C)O (stereo not drawn) [2,3-butanediol]",Relative activity (%),[2],100%
CCCCO [1-butanol],Relative activity (%),[2],0%
"C[C@H](O)[C@H](C)O [(2S,3S)-2,3-butanediol]",Relative activity (%),[4]; [8],100%
O=[N+]([O-])[O-].[Ag+] [AgNO3],Relative activity (%),[1]; [7],30%
CCCCCCC(C)O (stereo not drawn) [2-octanol],Relative activity (%),[2],59.6%
[Cl-].[Cl-].[Co+2] [CoCl2],Relative activity (%),[1]; pH 8,66%
CCOC(=O)C(C)=O [Ethyl pyruvate],Relative activity (%),[3],176%
"CC(O)CCCO (stereo not drawn) [1,4-pentanediol]",Relative activity (%),[2],3.3%
CCOC(=O)CC(=O)CCl [Ethyl 4-chloroacetoacetate],Relative activity (%),[3],21.7%
CC(=O)CO [Hydroxyacetone],Relative activity (%),[3],17.9%
O=C(O)CN(CCN(CC(=O)O)CC(=O)O)CC(=O)O [EDTA],Relative activity (%),[1]; pH 8,95%
CC(O)c1ccccc1 (stereo not drawn) [1-phenyl ethanol],Relative activity (%),[2],6.8%
CCCCC(C)=O [2-hexanone],Relative activity (%),[3],2.8%
CCC[C@H](C)O [(S)-2-pentanol],Relative activity (%),[4]; [8],58.9%
CC(O)CCl (stereo not drawn) [1-chloro-2-propanol],Relative activity (%),[2],7.7%
